Test results from patent US20250122193A1, “NOVEL PYRIDOCARBAZOLIUM COMPOUNDS AND MEDICAL USES THEREOF” (MyCural Therapeutics, priority 2021, published 2025).

Key:
[1] = molecular target: T1, recombinant bHLHZip domain of the MYC protein (Homo sapiens, UniProt P01106); assay: surface plasmon resonance (SPR), MYC bHLHZip; format: binding
T1 construct: using the recombinant bHLHZip domain of the MYC protein; 6xHis (N); made in house; host or cells: E. coli BL21 (DE3)
Description: FIG. 1: MYCMI-7 (Compound Example 1) inhibits the MYC:MAX interaction in cells, bind MYC in vitro, and blocks MYC function. A) Molecular structure of MYCMI-7. B-E) split Gaussia luciferase (GLuc) assay. MYC or MYCN and MAX Gluc constructs were co-transfected into HeLa cells together with a firefly luciferase vector. 24 hours post transfection cells were treated with compounds, and after another 17-24 hours cells were harvested and both GLuc and firefly luciferase activities were measured. The mean of three different experiments is shown. Treatment with: B) 5 μM of MYCMI-7, 64 μM 10058-F4 or 5 μM JQ1, respectively, C) 6.5 μM MYCMI-7 on cells expressing MYC:MAX GLuc vs. GCN4:GCN4 GLuc, D) 5 μM MYCMI-7 and 5 μM ellipticine. E) 5 μM MYCMI-7 for various time points. F) in situ proximity ligation assay (isPLA). […] MYC:GAL4 was used as negative control in the isPLA assay. G) Quantification of isPLA dots. (H) Co-immunoprecipitation (co-IP) of endogenous MYC and MAX proteins from MCF7 cells after treatment with 5 μM MYCMI-7 at various times. IP=immunoprecipitation; W=western blot. […] J) MYC target gene ODC1 expression after treatment with 5 μM MYCMI-7, quantified by qPCR. […] L) Recombinant MYC bHLHZip protein domain immobilized onto a CM5 chip was subjected to various concentrations of MYCMI-7 and the complex of MYCbHLHZip-MYCMI-7 was measured as response units by SPR. […]

[2] = tested on: Burkitt's lymphoma cell lines; assay: growth of Burkitt's lymphoma cell lines; format: cell-based
Description: Cell culture and transfection: HeLa, MCF7, MDA-MB-231, U20S, HCT116, SK-N-F1, SK-N-RA, SK-N-AS, COS-7, Rat1 fibroblasts (Tgrl, H015.19 and HOMYC3), primary rat embryonic fibroblasts (REFs) were maintained in DMEM and Kelly, IMR-32, SK-N-DZ, P493-6, Daudi, CA46 and Ramos were kept in RPMI. In addition, the medium for H015.19 and primary REFs contained 1% sodium pyruvate. […] U20S-MYC-ER cell lines were cultured in phenol-red free DMEM and treated with 100 nM 4-hydroxytamoxifen (4-OHT) (Sigma-Aldrich) to activate MYC-ER. […] Transfection of HeLa cells was performed using Lipofectamine 2000 reagent (Invitrogen) according to manufacturer's instructions. For transfection of 293-T, U20S and REFs, FuGene6 (ROCHE) was used in accordance with manufacturer's recommendations. The proteasome inhibitor Z-leu-leu-leu-H aldehyde ([…]) (Peptides International) was used at 40 μM concentration.

[3] = tested on: Normal human dermal fibroblasts (NHDF); assay: resazurin, cell count and trypan blue, NHDF; format: cell-based
Description: FIG. 4: MYCMI-7 induces apoptosis in malignant cells and growth arrest in normal cells. A) Cell cycle distribution analysis by flow cytometry of MYC-regulated P493-6 cells and normal rat embryo fibroblasts (REFs). Left panel, P493-6 synchronized in G0 by 24 hours treatment of […] doxycycline. Doxycycline was removed and the cells were harvested 48 hours after the addition of fresh medium containing DMSO or 5 μM MYCMI-7. Right panel, flow cytometry analysis of normal REFs treated with DMSO or 5 μM MYCMI-7. B) Apoptosis assay using the Cell Death Detection ELISA^plus kit. Left panel, immortalized Rat1 fibroblasts with different MYC status after 24 hours of 5 μM MYCMI-7 treatment, middle panel and right panels, normal REFs and normal peripheral blood lymphocytes, respectively, after 24 and 48 hours of 5 μM MYCMI-7 treatment. C) Measurement of viability and apoptosis by Apo-Tox Glo Triplex assay in A375 melanoma cells after 3 days of treatment with MYCMI-7 with the indicated concentrations. […] E) NHDFs treated with 3 μM MYCMI-7 for 72 hrs. Viability was measured by trypan blue exclusion assay. F) Cell growth measured with Cyt62 assay of primary normal human epidermal melanocytes (NHEM) treated for 72 hours with MYCMI-7, G) Viability measured by trypan blue exclusion assay of NHEM after treatment for 72 hours with MYCMI-7.

[4] = tested on: MYC/BCL-XL-driven acute myeloblastic leukemia
Description: A) Schematic plan of the experiment B) Flow cytometry analysis of GFP^+ leukemic blasts in bone marrow on day 11 (n=5), day 15 (n=5), and at the end point (n=9) after daily i.p. injection of 12.5 mg/kg MYCMI-7, compared with vehicle (n=3) mice. C). H&E and MYC immunohistochemistry (IHC) stainings of spleen sections at the endpoint. Images were taken at 10× magnification. D) quantification of MYC IHC stainings of spleen sections at the endpoint. E) Western blot analysis of cleaved caspase 3 and H3K9me3 expression in spleens at endpoint after treating mice with MYCMI-7 or vehicle (3 mice from each condition). Actin was used as loading control. At the end points, the last injection was done 3 hrs before sacrifice.
3×10^5 cells were injected into each recipient C57BL mouse after irradiation (600 rad). AML-like leukemia initiation was confirmed via flow cytometry and Giemsa staining, at day 8 after transplantation. MYCMI-7 were then administrated intraperitoneally daily at a dose of 12.5 mg/kg. Liver, spleen and bone marrow were extracted at day 11, 15 and endpoint for measurement. In addition, body weight of mouse in each group was also collected every 4th day until the endpoint of the experiment.
We next investigated potential anti-tumor effects of MYCMI-7 in vivo. […] The mice were then sacrificed according to scheme illustrated in FIG. 7A.

[5] = oxidative metabolism in mouse liver microsomes
Description: First, we performed a pharmacokinetic study of the behavior of the molecule in mice.

[6] = endpoint, compared with vehicle

T1 sequence (P01106 368-454 limits assumed): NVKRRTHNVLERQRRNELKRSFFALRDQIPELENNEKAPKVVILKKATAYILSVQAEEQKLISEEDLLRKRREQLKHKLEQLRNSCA

## CCN(CC)CC[n+]1ccc2c(C)c3[nH]c4ccccc4c3c(C)c2c1 [MYCMI-7, 2-(5,11-Dimethyl-6H-25-pyrido[4,3-b]carbazol-2-yl)-N,N-diethylethanamine bromide]
[1]
  binding to recombinant MYC by SPR: binds directly to MYC
[1]; SPR, Langmuir 1:1 analysis
  Kd: ~4 µM
[2]
  growth of three Burkitt's lymphoma cell lines: strongly reduced growth
[3]; 3 days, low micromolar concentrations
  cell number and metabolic activity normalized to DMSO: lower overall cell number and metabolic activity
[3]; 72 hrs
  cell viability (trypan blue): unaffected
[4]; 12.5 mg/kg daily i.p.
  body weight: retained their weight
  mouse survival: no significant difference
  side effects: no signs of severe side effects
[4]; 12.5 mg/kg daily i.p., day 15
  GFP positive leukemic cells in bone marrow: undetectable
[4]; 12.5 mg/kg daily i.p., end point (20+/−4 days)
  leukemic cells in bone marrow: around 10%
[4]; endpoint, compared to vehicle
  spleen structure: retained a more normal spleen structure
[4]; [6]
  MYC expression in leukemic cells (IHC): strongly reduced
  cleaved caspase 3 and H3K9me3 in leukemic spleens (western blot): increased expression
[5]
  stability against oxidative metabolism: stable
